In patent US20050065189A1, “Thiazole derivatives as cannabinoid receptor modulators” (SOLVAY PHARMACEUTICALS B.V., priority 2003, published 2005):
Read-outs that look alike come from different tables or passages of the source.

Tests used:
[1] = target: T1, human cannabinoid CB1 receptor (Homo sapiens, UniProt P21554); assay: In vitro affinity for human cannabinoid CB1 receptors ([3H]CP-55,940 radioligand binding, CHO cell membranes)
T1 construct: expressed in transfected cells; host or cells: Chinese hamster ovary (CHO) cells, membrane preparation
Method: In vitro Affinity for Human Cannabinoid CB1 Receptors
(§1) The affinity of the compounds of the invention for cannabinoid CB1 receptors can be determined using membrane preparations of Chinese hamster ovary (CHO) cells in which the human cannabinoid CB1 receptor is stably transfected in conjunction with [^3H]CP-55,940 as radioligand. After incubation of a freshly prepared cell membrane preparation with the [^3H]-ligand, with or without addition of compounds of the invention, separation of bound and free ligand is performed by filtration over glassfiber filters. Radioactivity on the filter is measured by liquid scintillation counting.

[2] = target: T2, human cannabinoid CB2 receptor (Homo sapiens, UniProt P34972); assay: In vitro affinity for human cannabinoid CB2 receptors ([3H]CP-55,940 radioligand binding, CHO cell membranes)
T2 construct: expressed in transfected cells; host or cells: Chinese hamster ovary (CHO) cells, membrane preparation
Method: In Vitro Affinity for Human Cannabinoid CB2 Receptors
as §1, with “CB2” for “CB1”

[3] = membranes of CHO cells stably transfected with human CB1, [3H]CP-55,940 radioligand, read-out: Receptor affinity Human CB1 pKi-value (converted)

T1 sequence (P21554 whole entry): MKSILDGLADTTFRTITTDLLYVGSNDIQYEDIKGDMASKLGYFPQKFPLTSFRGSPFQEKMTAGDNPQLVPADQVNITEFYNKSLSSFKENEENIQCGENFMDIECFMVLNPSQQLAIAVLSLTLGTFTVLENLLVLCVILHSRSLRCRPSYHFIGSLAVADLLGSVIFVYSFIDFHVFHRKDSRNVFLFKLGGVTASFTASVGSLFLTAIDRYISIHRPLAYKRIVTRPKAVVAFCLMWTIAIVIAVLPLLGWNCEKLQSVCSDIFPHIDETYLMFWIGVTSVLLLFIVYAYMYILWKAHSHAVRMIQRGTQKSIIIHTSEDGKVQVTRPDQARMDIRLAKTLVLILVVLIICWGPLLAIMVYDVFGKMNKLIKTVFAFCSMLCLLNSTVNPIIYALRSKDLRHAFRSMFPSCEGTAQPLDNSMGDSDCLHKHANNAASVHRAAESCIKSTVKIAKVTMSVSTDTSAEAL
T2 sequence (P34972 whole entry): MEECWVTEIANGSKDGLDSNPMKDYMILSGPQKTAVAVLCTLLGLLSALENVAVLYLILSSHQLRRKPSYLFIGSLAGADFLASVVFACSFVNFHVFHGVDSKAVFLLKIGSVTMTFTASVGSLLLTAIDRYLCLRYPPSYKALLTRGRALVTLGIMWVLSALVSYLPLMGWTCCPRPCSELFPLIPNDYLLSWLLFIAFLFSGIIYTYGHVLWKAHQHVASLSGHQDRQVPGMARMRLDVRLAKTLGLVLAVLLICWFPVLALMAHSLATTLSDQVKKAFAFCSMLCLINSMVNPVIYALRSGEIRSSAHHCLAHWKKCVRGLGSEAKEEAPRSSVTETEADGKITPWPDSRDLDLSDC

Compound: CCCCCCC(=O)c1nc(-c2ccccc2Cl)c(-c2ccccc2)s1 [Example 4]
- Ki [1, 3]: 158 nM

Compound: CCCCC(=O)c1nc(-c2ccc(Cl)cc2Cl)c(-c2ccccc2)s1 [Example 1, 1-[4-(2,4-dichlorophenyl)-5-phenylthiazol-2-yl]pentan-1-one]
- Ki [1, 3]: 251 nM

Compound: CCCCCc1nc(C(=O)NC23CC4CC(CC(C4)C2)C3)sc1-c1ccccc1 [Example 9, N-(adamant-1-yl)-4-(n-pentyl)-5-phenylthiazole-2-carboxamide]
- Ki [1, 3]: 15.8 nM
- Ki ([2]; membranes of CHO cells stably transfected with human CB2, [3H]CP-55,940 radioligand, read-out: Receptor affinity Human CB2 pKi-value (converted)): 7.94 nM

Compound: CCCCCc1nc(C(=O)NC2CCCCC2)sc1-c1ccccc1 [Example 11]
- Ki [1]: 251 nM
- Ki [2]: 20 nM
